Results published in patent US20090123907A1 (priority 2004, published 2009).
Values joined by “and” are separate entries in the source; they are usually repeats but may differ in a detail not shown here. Identical values can stand only once.

What was measured:
[1] = tested on: clotting enzyme activation (D-dimers); experiment: D-dimer test (DimerTest latex agglutination) for cryptic activation in citrated plasma; type: biochemical
Procedure: The samples were divided into four 1 ml aliquots. To three of the sample aliquots, sufficient concentrated citrate solution was added to achieve 1%, 1.5% or 2% weight/volume citrate, respectively, while the fourth aliquot acted as the control.
As a “worst case” scenario to detect activation, the aliquots were incubated at 21° C. for a maximum of ten days. Each aliquot was assayed daily for the presence of D-dimers using the DimerTest latex agglutination assay (American Diagnostica, Stamford, Conn.). The results are shown in Table 1 where the number of days to observable D-dimers is listed for each aliquot. […] At day six of incubation, 41.2% (14) of the control aliquots were positive for the presence of D-dimers. By day seven, 100% (34) of the normal citrate (0.4%) aliquots were positive for D-dimers.

[2] = tested on: red blood cells; experiment: Red blood cell integrity during storage at 4° C.; type: cell-based; set-up: MCV Day 20 / MCV Day 33: unit not given here; conditions: for RBC Day 1: whole blood; for MCV Day 20 / MCV Day 33: whole blood stored at 4° C.
Procedure: (§1) In this experiment whole blood (an aliquot of which clotted within 10 minutes without anticoagulant) was modified by adding a number of different anticoagulant compositions. Sodium citrate was used as an anticoagulant at 0.65%, 0.75% and 0.9% by weight. These are all higher citrate levels than the usual 0.4% by weight. Amino acid citrates (lysine or arginine) were used at 0.65%, 0.75% and 0.9% by weight based on the weight of the citric acid. The amino acid counterion was used in sufficient quantity to adjust the pH as explained above.
To judge red cell condition the blood was counted and various other measurements were taken initially and after 20 and 33 days of storage at 4° C. Apparent initial/differences in RBC counts are due to dilution caused by adding extra anticoagulant. Mean cell volume (MCV) is a red cell index that is a useful measure of red cell health. […] It is believed that a citrate level of at least about 1.0% by weight (i.e., more than two times the usual amount) is necessary to ensure against all activation of plasma proteins. […] On the other hand, amino acid citrates, which are very effective anticoagulants, are also effective at preventing red cell damage.

[3] = tested on: clot formation; experiment: Clotting times (PT, PTT) of anticoagulated whole blood; type: biochemical
Procedure: as §1

| SMILES | number of days to observable D-dimers ([1]; 0.4% Citrate, plasma at 21° C., maximum ten days) | aliquots positive for the presence of D-dimers ([1]; 0.4% citrate control aliquots, day six of incubation) [%] | aliquots positive for D-dimers ([1]; 0.4% citrate, by day seven) [%] | aliquots that showed D-dimers by day ten ([1]; additional citrate (1%, 1.5%, 2%)) | RBC Day 1 ([2]; anticoagulant 0.65 wgt %) | MCV Day 20 ([2]; anticoagulant 0.65 wgt %) | MCV Day 33 ([2]; anticoagulant 0.65 wgt %) | RBC Day 1 ([2]; anticoagulant 0.75 wgt %) | MCV Day 20 ([2]; anticoagulant 0.75 wgt %) | MCV Day 33 ([2]; anticoagulant 0.75 wgt %) | RBC Day 1 ([2]; anticoagulant 0.90 wgt %) | MCV Day 20 ([2]; anticoagulant 0.90 wgt %) | MCV Day 33 ([2]; anticoagulant 0.90 wgt %) | PT (4 hrs at RT) ([3]; anticoagulant 0.65 wgt %) [s] | PTT (4 hrs at RT) ([3]; anticoagulant 0.65 wgt %) [s] | PT (4 hrs at RT) ([3]; anticoagulant 0.75 wgt %) [s] | PTT (4 hrs at RT) ([3]; anticoagulant 0.75 wgt %) [s] | PT (4 hrs at RT) ([3]; anticoagulant 0.90 wgt %) [s] | PTT (4 hrs at RT) ([3]; anticoagulant 0.90 wgt %) [s] |
| --- | --- | --- | --- | --- | --- | --- | --- | --- | --- | --- | --- | --- | --- | --- | --- | --- | --- | --- | --- |
| O=C(O)CC(O)(CC(=O)O)C(=O)O [Citrate] | 6 days and 7 days and 5 days | 41.2 | 100 | None | – | – | – | – | – | – | – | – | – | – | – | – | – | – | – |
| N=C(N)NCCC[C@H](N)C(=O)O.O=C(O)CC(O)(CC(=O)O)C(=O)O [Arg Citrate, arginine citrate] | – | – | – | – | 5.77 10^6/μl | 93.1 | 93.5 | 6.45 10^6/μl | 92.6 | 93.6 | 6.77 10^6/μl | 91.5 | 92.4 | 15.8 | 36.8 | 20.2 | 39.9 | 55 | 56.8 |
